The values below come from patent US11332485B2, “Penicillin-binding protein inhibitors” (priority 2017, dated 2022).

The subject of one assay is S. aureus ATCC 29213. Briefly: Broth microdilution MIC assay. Type of assay: cell-based. The following applies: Staphylococcus aureus. The procedure: (§1) To determine the ability of test compounds to potentiate the inhibition of the growth of bacterial strains, classic cell based broth microdilution MIC assays were employed. MIC assays are performed according to CLSI methods except where otherwise noted (CLSI, 2011 and CLSI, 2009). The reference strain S. aureus ATCC 29213 and the hyper-permeable E. coli 901C were used to determine the ability of the PBP compounds to inhibit bacterial growth. Briefly, cryo-preserved bacterial cultures of clinical strains are streaked for isolation on appropriate agar medium, in this case Mueller Hinton II agar. Following incubation to allow formation of colonies these plates are sealed with parafilm and stored refrigerated for up to two weeks. For preparation of assay inocula and to ensure low variability, at least 5 colonies are picked from the agar plates with an inoculating loop and aseptically transferred to a culture tube containing 3 mL of Mueller-Hinton Broth (supplemented with divalent cations to required levels based on Manufacturers' certification). The broth culture is grown for 3-5 hours at 37° C. with shaking at 200 rpm. Meanwhile, 2-fold serial dilutions of test compounds are conducted in a 96 well plate with a final volume of 75 μL per well at 2-fold the final desired concentration. After the dilution plates are set up the growing cultures are then diluted in a cuvette containing MH II broth and the optical density is measured at 600 nm. Inocula are diluted such that 75 μL of this culture in Mueller-Hinton Broth results in a starting bacterial concentration of 5×10^5 CFU/mL when added to the dilution plates. The plates are incubated 16-20 hours at 37° C. The MIC is read visually as the lowest concentration well with no bacterial growth.
Background: Broth dilution looks for growth in wells or tubes with falling amounts of substance.

The subject of assay [1] is hyper-permeable E. coli 901C. As to the kind of experiment: Broth microdilution MIC assay. Type of assay: cell-based. The following applies: Escherichia coli, read-out: E. coli 901C MIC. The procedure:
as §1

The subject of a further assay is E. coli DH5α/pLBII. As to the kind of experiment: Broth microdilution MIC assay, empty vector control strain. In kind it is cell-based. The following applies: Escherichia coli, read-out: E. coli DH5α/pLBII Microbiological Activity (MIC). The procedure: as §1
(§2) To determine if test compounds were affected by CTX-M15, the most abundant extended spectrum β-lactamase in clinical settings worldwide, the inhibition of the growth of an engineered strain of Escherichia coli harboring CTX-M15 was tested. This strain was constructed by cloning the gene encoding CTX-M15 into the NdeI and BamHI restriction endonuclease sites of plasmid pLBII, placing the gene(s) under the control of the Lac promoter. The constructed expression plasmid for CTX-M15 was used to transform competent E. coli DH5a cells to make the engineered strain, including an empty pLBII vector control strain. The classic cell based broth microdilution MIC assay was employed as described above with the addition of control antibiotics, known to be degraded by β-lactamases (Ceftazidime, piperacillin and piperacillin+tazobactam).

Assay [2] has as its system E. coli DH5α/pLBII-CTX-M15. As to the kind of experiment: Broth microdilution MIC assay, engineered strain producing CTX-M15. In kind it is cell-based, Escherichia coli. The following applies: Escherichia coli, read-out: E. coli DH5α/pLBII-CTX-M15 Microbiological Activity (MIC). On the procedure:
as §1, §2

Where [3] appears, read: ATCC29213, broth microdilution, 16-20 hours at 37° C., read-out: S. aureus 29213 MIC.

SMILES strings stand for the structures. Where two headings read alike, the source gives them in different places.

For `CCN1CCN(C(=O)NC(C(=O)N[C@@H]2Cc3cccc(C(=O)O)c3OB2O)c2csc(N)n2)C(=O)C1=O` (stereo partly drawn) [Example 33, (3S)-3-(2-(2-aminothiazol-4-yl)-2-(4-ethyl-2,3-dioxopiperazine-1-carboxamido)acetamido)-2-hydroxy-3,4-dihydro-2H-benzo[e][1,2]oxaborinine-8-carboxylic acid], the MIC in the assay with S. aureus ATCC 29213 (setting [3]) is over 128 µg/mL; in assay [1], under 64 µg/mL; in the assay with E. coli DH5α/pLBII, 128 to 256 µg/mL; in assay [2], 128 to 256 µg/mL.
Regarding `CCN1CCN(C(=O)N[C@H](CO)C(=O)N[C@H]2Cc3cccc(C(=O)O)c3OB2O)C(=O)C1=O` [Example 35, (R)-3-((R)-2-(4-Ethyl-2,3-dioxopiperazine-1-carboxamido)-3-hydroxy-propanamido)-2-hydroxy-3,4-dihydro-2H-benzo[e][1,2]oxaborinine-8-carboxylic acid], the MIC with S. aureus ATCC 29213 (setting [3]) was over 128 µg/mL; in assay [1], under 64 µg/mL; in the assay on E. coli DH5α/pLBII it was 32 to 64 µg/mL; in assay [2], 32 to 64 µg/mL.
For the compound `CCN1CCN(C(=O)N[C@H](Cc2c[nH]cn2)C(=O)N[C@H]2Cc3cccc(C(=O)O)c3OB2O)C(=O)C1=O` [Example 40, (R)-3-((R)-2-(4-ethyl-2,3-dioxopiperazine-1-carboxamido)-3-(1H-imidazol-4-yl)propanamido)-2-hydroxy-3,4-dihydro-2H-benzo[e][1,2]oxaborinine-8-carboxylic acid], the MIC is over 128 µg/mL in the assay on S. aureus ATCC 29213 (setting [3]), 64 to 128 µg/mL in assay [1], 128 to 256 µg/mL with E. coli DH5α/pLBII and 128 to 256 µg/mL in assay [2].
With `COc1cc(C(=O)NC(C(=O)N[C@H]2Cc3cccc(C(=O)O)c3OB2O)c2csc(N)n2)ccn1` (stereo partly drawn) [Example 41, (3R)-3-(2-(2-aminothiazol-4-yl)-2-(2-methoxyisonicotinamido)acetamido)-2-hydroxy-3,4-dihydro-2H-benzo[e][1,2]oxaborinine-8-carboxylic acid], the MIC in the assay with S. aureus ATCC 29213 (setting [3]) was 64 to 128 µg/mL; in assay [1], under 64 µg/mL; with E. coli DH5α/pLBII it was over 512 µg/mL; in assay [2], over 512 µg/mL.
With `Cn1ccc(C(=O)NC(C(=O)N[C@H]2Cc3cccc(C(=O)O)c3OB2O)c2csc(N)n2)cc1=O` (stereo partly drawn) [Example 42, (3R)-3-(2-(2-aminothiazol-4-yl)-2-(1-methyl-2-oxo-1,2-dihydropyridine-4-carboxamido)acetamido)-2-hydroxy-3,4-dihydro-2H-benzo[e][1,2]oxaborinine-8-carboxylic acid], the MIC was 64 to 128 µg/mL in the assay on S. aureus ATCC 29213 (setting [3]), under 64 µg/mL in assay [1], 32 to 64 µg/mL in the assay on E. coli DH5α/pLBII and 32 to 64 µg/mL in assay [2].
As to `COc1ccc(C(=O)NC(C(=O)N[C@H]2Cc3cccc(C(=O)O)c3OB2O)c2csc(N)n2)c(=O)[nH]1` (stereo partly drawn) [Example 46, (3R)-3-(2-(2-aminothiazol-4-yl)-2-(6-methoxy-2-oxo-1,2-dihydropyridine-3-carboxamido)acetamido)-2-hydroxy-3,4-dihydro-2H-benzo[e][1,2]oxaborinine-8-carboxylic acid], the MIC in the assay with S. aureus ATCC 29213 (setting [3]) is over 128 µg/mL; in assay [1] it was under 64 µg/mL; in the assay with E. coli DH5α/pLBII it was 128 to 256 µg/mL; in assay [2], 128 to 256 µg/mL.
Turning to `CCCN1CCN(C(=O)NC(C(=O)N[C@H]2Cc3cccc(C(=O)O)c3OB2O)c2csc(N)n2)C(=O)C1=O` (stereo partly drawn) [Example 51, (3R)-3-(2-(2-aminothiazol-4-yl)-2-(2,3-dioxo-4-propylpiperazine-1-carboxamido)acetamido)-2-hydroxy-3,4-dihydro-2H-benzo[e][1,2]oxaborinine-8-carboxylic acid], the MIC is 64 to 128 µg/mL in the assay with S. aureus ATCC 29213 (setting [3]), under 64 µg/mL in assay [1], 8 to 16 µg/mL in the assay with E. coli DH5α/pLBII and 8 to 16 µg/mL in assay [2].
With `Nc1nc(C(NC(=O)N2CCN(CCCF)C(=O)C2=O)C(=O)N[C@H]2Cc3cccc(C(=O)O)c3OB2O)cs1` (stereo partly drawn) [Example 54, (3R)-3-(2-(2-aminothiazol-4-yl)-2-(4-(3-fluoropropyl)-2,3-dioxopiperazine-1-carboxamido)acetamido)-2-hydroxy-3,4-dihydro-2H-benzo[e][1,2]oxaborinine-8-carboxylic acid], the MIC with S. aureus ATCC 29213 (setting [3]) is 64 to 128 µg/mL; in assay [1] it was under 64 µg/mL; in the assay with E. coli DH5α/pLBII it was 8 to 16 µg/mL; in assay [2], 8 to 16 µg/mL.
`CCCN1CCN(C(=O)NC(C(=O)N[C@H]2Cc3cccc(C(=O)O)c3OB2O)c2csc(NC(=O)OCc3ccccc3)n2)C(=O)C1=O` (stereo partly drawn) [Example 56, (3R)-3-(2-(2-(((benzyloxy)carbonyl)amino)thiazol-4-yl)-2-(2,3-dioxo-4-propylpiperazine-1-carboxamido)acetamido)-2-hydroxy-3,4-dihydro-2H-benzo[e][1,2]oxaborinine-8-carboxylic acid]: the MIC with S. aureus ATCC 29213 (setting [3]) is 64 to 128 µg/mL; in assay [1] it was under 64 µg/mL; in the assay with E. coli DH5α/pLBII it was over 512 µg/mL; in assay [2], over 512 µg/mL.
Consider `CCN1C(=O)CN(C(=O)NC(C(=O)N[C@H]2Cc3cccc(C(=O)O)c3OB2O)c2csc(N)n2)CC1=O` (stereo partly drawn) [Example 64, (3R)-3-(2-(2-aminothiazol-4-yl)-2-(4-ethyl-3,5-dioxopiperazine-1-carboxamido)acetamido)-2-hydroxy-3,4-dihydro-2H-benzo[e][1,2]oxaborinine-8-carboxylic acid], for which the MIC is over 128 µg/mL with S. aureus ATCC 29213 (setting [3]), under 64 µg/mL in assay [1], 128 to 256 µg/mL with E. coli DH5α/pLBII and 128 to 256 µg/mL in assay [2].
Take `Nc1nc(C(NC(=O)C2CCCC(=O)N2)C(=O)N[C@H]2Cc3cccc(C(=O)O)c3OB2O)cs1` (stereo partly drawn) [Example 68, (3R)-3-(2-(2-aminothiazol-4-yl)-2-(6-oxopiperidine-2-carboxamido)acetamido)-2-hydroxy-3,4-dihydro-2H-benzo[e][1,2]oxaborinine-8-carboxylic acid]: the MIC in the assay on S. aureus ATCC 29213 (setting [3]) is over 128 µg/mL; in assay [1], under 64 µg/mL; in the assay on E. coli DH5α/pLBII, 128 to 256 µg/mL; in assay [2], 128 to 256 µg/mL.
As to `Nc1nc(C(NC(=O)N2CCN(CC(F)F)C(=O)C2=O)C(=O)N[C@H]2Cc3cccc(C(=O)O)c3OB2O)cs1` (stereo partly drawn) [Example 69, (3R)-3-(2-(2-aminothiazol-4-yl)-2-(4-(2,2-difluoroethyl)-2,3-dioxopiperazine-1-carboxamido)acetamido)-2-hydroxy-3,4-dihydro-2H-benzo[e][1,2]oxaborinine-8-carboxylic acid], the MIC was 64 to 128 µg/mL in the assay on S. aureus ATCC 29213 (setting [3]), under 64 µg/mL in assay [1], 8 to 16 µg/mL with E. coli DH5α/pLBII and 8 to 16 µg/mL in assay [2].
Take `CCN1CCN(C(=O)N[C@@H](C(=O)N[C@H]2Cc3cccc(C(=O)O)c3OB2O)[C@H](O)CO)C(=O)C1=O` [Example 74, (R)-3-((2R,3S)-2-(4-ethyl-2,3-dioxopiperazine-1-carboxamido)-3,4-dihydroxybutanamido)-2-hydroxy-3,4-dihydro-2H-benzo[e][1,2]oxaborinine-8-carboxylic acid]: the MIC in the assay with S. aureus ATCC 29213 (setting [3]) is over 128 µg/mL; in assay [1] it was under 64 µg/mL; with E. coli DH5α/pLBII, 32 to 64 µg/mL; in assay [2] it was 32 to 64 µg/mL.
Regarding `Nc1nc(C(NC(=O)N2CCCN(O)S2(=O)=O)C(=O)N[C@H]2Cc3cccc(C(=O)O)c3OB2O)cs1` (stereo partly drawn) [Example 77, (3R)-3-(2-(2-aminothiazol-4-yl)-2-(6-hydroxy-1,1-dioxido-1,2,6-thiadiazinane-2-carboxamido)acetamido)-2-hydroxy-3,4-dihydro-2H-benzo[e][1,2]oxaborinine-8-carboxylic acid], the MIC in the assay on S. aureus ATCC 29213 (ATCC29213, read-out: S. aureus 29213 MIC) is over 128 µg/mL; in assay [1] it was under 64 µg/mL; in the assay on E. coli DH5α/pLBII, 32 to 64 µg/mL; in assay [2], 32 to 64 µg/mL.
